For series [1] the following is noted: cited from earlier work; for metabolism in blood: disappearing in the process; for Reaction in Blood Half-life: in vitro.
The conditions of series [2]: cited from earlier work; for breath AMS and acetone production: after consumption; for time of disappearance from breath: after garlic consumption.
For series [3] the following is noted: in vitro, in the presence of cysteine; cited from earlier work.
For series [4] the following is noted: after fresh garlic (e.g. 25 g) or pure allicin (60 mg); cited from earlier work.
The test system of series [5] is plaque. The series can be described thus: Diluted allyl mercaptan poured over the toothbrush bristles (Applicant). To be noted: 1/200 in distilled water on toothbrush, a week of use. The series is classed as in vivo. The source says: Because allyl mercaptan and propyl mercaptan are water soluble, it is easier to experiment with them than with diallyl disulfide or dipropyl disulfide (which are an oils).

In series [6] the test system is leukemia cell cultures. To be noted: co-administered to reduce glutathione; cited from earlier work.
Series [7] concerns 13 types of bacteria. Conditions: cited from earlier work.
The subject of series [8] is cytochrome P-450 enzymes (e.g. CYP2E1) and flavin-containing monooxygenases. Conditions: cited from earlier work.
Series [9] concerns pro-inflammatory cytokines (e.g. IL-1, TNF-alpha and IL-10). To be noted: cited from earlier work.
For series [10], the system named is plaque, mouth sores. The series can be described thus: Evaluation of the antimicrobial toothpaste by Applicant and evaluators. The series is classed as in vivo. To be noted: as active ingredient of experimental toothpastes. The procedure:
I decided to next try mixing it with the toothpaste that I normally use by squeezing out the contents of a tube of Arm and Hammer Dental Care Toothpaste into a bowl, mixing in 10 ml (2 teaspoons) of 1/200 diluted allyl mercaptan, and then returning the toothpaste to the tube. […] Mixing with a conventional toothpaste provides an adequate carrier for the allium related compound. More generally, of course, any orally acceptable carrier suitable for application to the teeth may be used. […] This includes the carriers used in commercially available toothpastes, tooth powders, or other dentifrice products.
The resulting toothpaste has no significant “garlic” smell or taste. It left the mouth feeling very clean, so clean that unwaxed dental floss “squeaks” when slid up and down the side of each tooth.
Several friends and acquaintances were willing to try the toothpaste and provide feedback. Under a “Nondisclosure and Produce Evaluation Agreement” I supplied them with free samples to evaluate. The agreement specified that the samples are not for sale, that the inventive aspects of the samples are confidential, and that the samples have no warranty.
A commercial version of the toothpaste (using onion oil as the active ingredient) is now being manufactured under license by Viola Vitalis corporation of Dhaka, Bangladesh (a company that is partially owned by the applicant).

Series [11] relates to Cu2^+ induced LDL oxidation. Conditions: cited from earlier work.
For series [12], the system named is NFkB. Conditions: macrophages, cited from earlier work.
The subject of series [13] is acetaminophen poisoning. To be noted: mice, cited from earlier work.
Series [14] relates to total glutathione level of cells. To be noted: in vitro administration of SAMC; cited from earlier work.
For series [15] the following is noted: during the first hour after consumption; cited from earlier work.
For series [16] the following is noted: cited from earlier work.
Series [17] has as its system trypsin enzyme inhibitor. To be noted: cysteine 2% by weight, soy flour heated at 65 degrees C. for 1 hour; cited from earlier work.
For series [18], the system named is nematodes. To be noted: cited from earlier work.
Series [19] has as its system E-coli O157:H7. To be noted: cited from earlier work.
The conditions of series [20]: without nitrosothiol formation; cited from earlier work.
Series [21] has as its target NFkB signal transduction proteins p50 and P65 (Homo sapiens, UniProt P19838+Q04206). Conditions: measured with a nitric oxide probe; cited from earlier work.
Series [22] concerns glutathione. Conditions: daily dosage of 1000 mg, multiple myeloma patients; cited from earlier work.
The test system of series [23] is liver glutathione level. To be noted: cited from earlier work.

“Also recorded” adds a separate entry of the source. Read-outs that look alike come from different tables or passages of the source. Some results are limits rather than exact numbers.

`C=CCSSC=CC[S+]([O-])CC=C` (mixture of isomers) [ajoene]: the metabolism in blood result in series [1] was “metabolize directly in blood to allyl mercaptan”. Besides, the “breath AMS and acetone production” value in series [2] is “produce both breath AMS and acetone”.
Take `C=CCSC` [AMS, allyl methyl sulfide]: the “time of disappearance from breath” value in series [2] is around 20 h.
Take `C=CCS[S+]([O-])CC=C` (centres unmarked) [Allicin, DiAllylThioSulfinate]: in series [3], the “Reaction with Cysteine Half-life” value was below 1 min. Also, the “Reaction in Blood Half-life” value in series [1] is listed as below 1 min. Besides, the “time for metabolism to allyl mercaptan” value in [1] (red blood cells exposed to allicin) is on record as “less than one minute”. The “detectability in blood, urine, or stool” value in series [4] is “undetectable”.
Take `C=CCS` [AllylSH, AllylThiol]: in series [5], the plaque result is reported as “reduction in plaque”. Further, in series [3], the “Reaction with Cysteine Half-life” value is 80 min. For the same molecule, the “time of disappearance from breath” value in [2] was at most 1 h.
As for `CCCCS(=N)(=O)CCC(N)C(=O)O` (centres unmarked) [BSO, buthionine sulfoximine], the “cytotoxicity of chemotherapeutic arsenicals” value in [6] is recorded as “increase the cytotoxicity”.
Consider `O=C(N[C@H](CO)[C@H](O)c1ccc([N+](=O)[O-])cc1)C(Cl)Cl` [Chloramphenicol], for which, in [7], the “average zone of inhibition” value is listed as 20 mm and the species inhibited is reported as 12/13.
With `C=CCSSCC=C` [DADS, Diallyl Disulfide], the “Reaction with Cysteine Half-life” value in series [3] was 45 min. Besides, in series [1], the metabolism in blood entry is “metabolize directly in blood to allyl mercaptan” and the “Reaction in Blood Half-life” value is 60 min. In addition, in series [8], the “activity of the enzymes producing allicin from DADS” value is given as “up to 121 pmol/min/pmol CYP2D6”. The “conversion of DADS to allicin” value in series [8] (in 30 minutes) is “approximately 30%”. Moreover, the “expression of pro-inflammatory cytokines” value in [9] is “inhibit the expression”. The “breath AMS and acetone production” value in [2] is “produce both breath AMS and acetone”.
With `C=CCSCC=C` [DAS], the “breath AMS and acetone production” value in series [2] is recorded as “only produces breath acetone”.
Consider `CCCSSCCC` [DPDS, di-n-propyl disulfide], for which the “performance relative to the allyl mercaptan toothpaste” value in series [10] is given as “performed similarly”. In series [9], the “expression of pro-inflammatory cytokines” value is on record as “inhibit the expression”.
`C=CCSC[C@H](NC(C)=O)C(=O)O` [N-acetyl-S-allylcysteine]: the “effect on Cu2^+ induced LDL oxidation” value in series [11] is “significantly reduce”.
Consider `N[C@@H](CSN=O)C(=O)O` [S-Nitrosocysteine], for which, in series [12] (nitric oxide donor), the “donor concentration that nearly completely inhibits the activation of NFkB” value is 1 micro mole.
Turning to `C=CCSC[C@H](N)C(=O)O` [S-allylcysteine], the “effect on Cu2^+ induced LDL oxidation” value in [11] was “significantly reduce”. The “breath AMS and acetone production” value in [2] was “produces no breath AMS or acetone”.
Turning to `C=CCSSC[C@H](N)C(=O)O` [SAMC, S-AllylMercaptoCysteine], in series [13] (pretreatment), the “protection from acetaminophen poisoning, pretreatment” value is listed as “protect mice from acetaminophen poisoning”. Further, the “protection from acetaminophen, post treatment” value in series [13] (single dose 200 mg/kg shortly after exposure) is given as “protective”. Also, in [14], the “total glutathione level of cells” value was “significantly increase; also recorded: significant increases the total glutathione level”. In series [1], the metabolism in blood entry is “metabolize directly in blood to allyl mercaptan” and the “Reaction in Blood Half-life” value is recorded as 3 min. In addition, the “effect on Cu2^+ induced LDL oxidation” value in series [11] was “significantly reduce”. For the same molecule, in [2], the “breath AMS and acetone production” value was “produce both breath AMS and acetone”.
Regarding `[AsH3]` [arsenic], the “fraction excreted directly from the liver to the bile” value in series [15] is reported as around 40%.
On to `N[C@@H](CS)C(=O)O` [cysteine, Cysteine], for which the pKa entry in series [16] is given as “approximately 8.5”. The “deactivation of the trypsin enzyme inhibitor” value in series [17] was “over 90%”.
On to `C=CCSSSCC=C` [diallyl trisulfide], for which the metabolism in blood entry in [1] is “metabolize directly in blood to allyl mercaptan”. Also, the “breath AMS and acetone production” value in [2] is “produce both breath AMS and acetone”.
For `CCCS[S+]([O-])CCC` (centres unmarked) [dipropyl thiosulfinate, Dipropyl Thiosulfinate], in series [18], the nematicidal activity ranking result is given as “most effective compound found”.
As to `C=CCS[S+](C)[O-]` (centres unmarked) [methyl allyl thiosulfinate], the “effectiveness against E-coli O157:H7” value in series [19] is listed as “effective”.
As to `CS[S+](C)[O-]` (centres unmarked) [methyl methane thiosulfinate, Methyl methanethiosulfinate], the “effectiveness against E-coli O157:H7” value in series [19] is recorded as “effective”.
In the case of `[N]=O` [nitric oxide], in series [12], the “concentration that nearly completely inhibits the activation of NFkB” value is recorded as “less than 1 micro-mole”. In series [20], the “half life in circulation” value is “about 5 seconds”. Also, the “concentration that inhibited DNA binding activity of p50 and P65” value in series [21] is given as 20-100 nano mole.
In the case of `O=C1O[C@H]([C@@H](O)CO)C(O)=C1O` [vitamin C, ascorbic acid], the “mean percentage decrease of glutathione” value in series [22] was 60%. Moreover, the “cytotoxicity of chemotherapeutic arsenicals” value in series [6] is “increase the cytotoxicity”.
Take S-allylcysteine sulfoxide [alliin]: the “effect on Cu2^+ induced LDL oxidation” value in series [11] is “significantly reduce”.
Turning to sodium arsenate, the liver glutathione level in series [23] (protein deficient (6%) rats, unexposed controls 74) is given as 134 micrograms per gram; in series [23] (well fed rats (18% protein), unexposed controls 88), 123 micrograms per gram.

Source of the values: patent US20140050677A1, “Personal care and medicinal products incorporating bound organosulfur groups” (priority 2006, published 2014).
